{"source": "patent US20220281830A1", "about": "“SALT” (NIPPON SHINYAKU CO., LTD., priority 2019, published 2022)", "key": {"[1]": {"assay": "Rat in vivo study: plasma pharmacokinetics of MRE-269 after oral capsule dosing", "design": "species or system Sprague-Dawley rat", "procedure": "Qualicaps, Nara, Japan) and given orally to male Sprague-Dawley rat (Japan SLC, Sizuoka, Japan) at a dose level of 1 mg/capsule/body. […] • The concentration of MRE-269 in plasma sample was determined by high performance liquid chromatography (HPLC) tandem mass spectrometry (LC-MS/MS). […] For LC-MS/MS, a Nexera HPLC system (Shimadzu, Kyoto, Japan) equipped with an InertSustain C18 column (2-μm particle size; 2.1 mm i.d.×50 mm; GL Science) connected to a TQ4500 or TQ5500 tandem mass spectrometer (Sciex, Framingham, Mass.) was used. The HPLC mobile phase was 0.1% formic acid (solvent A) and acetonitrile (solvent B). A gradient was run at 85% solvent B in 2.5 min at a flow rate of 0.4 mL/min and 40° C. Each analyte detected was quantified in positive ion multiple reaction monitoring mode by applying the following precursor-to-product transitions: […] • The pharmacokinetic parameters were calculated with Phoenix WinNonlin version 8.1.0 (Certara Princeton, NJ). Relative bioavailability (BA) to MRE-269 was calculated according to the following equation. Relative BA (%)=(AUC0-24(each salt)/(AUC0-24(MRE-269, mean)×100"}, "[2]": {"assay": "Thermodynamic stability of the free-form crystal", "type": "physicochemical", "conditions": "free form produced according to Example 42 of PTL 1", "description": "A method for producing Compound B is disclosed in Example 42 of PTL 1. […] Thus, the present invention was completed."}, "[3]": {"conditions": "MRE-269 in plasma, male Sprague-Dawley rat, oral, HPMC capsule, 1 mg/capsule/body"}}, "note": "Like-named read-outs stand apart in the source and are kept apart here.", "data": [{"compound": "CC(C)N(CCCCOCC(=O)O)c1cnc(-c2ccccc2)c(-c2ccccc2)n1.O=S(=O)(O)CCS(=O)(=O)O", "note": "[1,2-Ethanedisulfonate salt (Pattern A), 1,2-Ethanedisulfonate salt of 2-[4-[(5,6-diphenylpyrazin-2-yl)-propan-2-ylamino]butoxy]acetic acid]", "values": [{"measurement": "t1/2", "setting": "[1]; rat, in vivo, po", "value": "3.99 ± 2.01", "unit": "h"}, {"measurement": "tmax", "setting": "[1]; rat, in vivo, po", "value": "3.10 ± 2.30", "unit": "h"}]}, {"compound": "CC(C)N(CCCCOCC(=O)[O-])c1cnc(-c2ccccc2)c(-c2ccccc2)n1.CC(C)N(CCCCOCC(=O)[O-])c1cnc(-c2ccccc2)c(-c2ccccc2)n1.[Ca+2]", "note": "[Calcium salt (Pattern 1), Calcium salt of 2[4-[(5,6-diphenylpyrazin-2-yl)-propan-2-ylamino]butoxy]acetic acid]", "values": [{"measurement": "tmax", "setting": "[1]; rat, in vivo, po", "value": "7.50 ± 3.79", "unit": "h"}]}, {"compound": "CC(C)N(CCCCOCC(=O)O)c1cnc(-c2ccccc2)c(-c2ccccc2)n1", "note": "[MRE-269, 2-(4-((5,6-diphenylpyrazin-2-yl)(isopropyl)amino)butoxy)acetic acid, reference compound]", "values": [{"measurement": "AUC(0-t)", "setting": "[1]; [3]", "value": "5620 ± 1920", "unit": "ng·h/mL"}, {"measurement": "Cmax", "setting": "[1]; MRE-269 in plasma, male Sprague-Dawley rat, oral, HPMC capsule, 1 mg/capsule/body, read-out: Cmax", "value": "475 ± 142", "unit": "ng/mL"}, {"measurement": "tmax", "setting": "[1]; MRE-269 in plasma, male Sprague-Dawley rat, oral, HPMC capsule, 1 mg/capsule/body, read-out: tmax", "value": "6.5 ± 3", "unit": "h"}]}, {"compound": "CC(C)N(CCCCOCC(=O)[O-])c1cnc(-c2ccccc2)c(-c2ccccc2)n1.[K+]", "note": "[Potassium salt, Potassium salt of 2-[4-[(5,6-diphenylpyrazin-2-yl)-propan-2-ylamino]butoxy]acetic acid]", "values": [{"measurement": "t1/2", "setting": "[1]; rat, in vivo, po", "value": "8.96 ± 8.00", "unit": "h"}, {"measurement": "tmax", "setting": "[1]; rat, in vivo, po", "value": "3.25 ± 3.20", "unit": "h"}]}, {"compound": "CC(C)N(CCCCOCC(=O)[O-])c1cnc(-c2ccccc2)c(-c2ccccc2)n1.[Na+]", "note": "[Sodium salt, Sodium salt of 2-[4-[(5,6-diphenylpyrazin-2-yl)-propan-2-ylamino]butoxy]acetic acid]", "values": [{"measurement": "tmax", "setting": "[1]; rat, in vivo, po", "value": "7.50 ± 1.91", "unit": "h"}]}, {"compound": "CC(C)N(CCCCOCC(=O)O)c1cnc(-c2ccccc2)c(-c2ccccc2)n1.NC(CO)(CO)CO", "note": "[Tromethamine salt, Tromethamine salt of 2-[4-[(5,6-diphenylpyrazin-2-yl)-propan-2-ylamino]butoxy]acetic acid]", "values": [{"measurement": "AUC0-last", "setting": "[1]; [3]", "value": "7170 ± 2320", "unit": "ng·h/mL"}, {"measurement": "AUC0-∞", "setting": "[1]; [3]", "value": "6520 ± 1890", "unit": "ng·h/mL"}, {"measurement": "Cmax", "setting": "[1]; [3]", "value": "949 ± 555", "unit": "ng/mL"}, {"measurement": "t1/2", "setting": "[1]; [3]", "value": "3.48 ± 0.43", "unit": "h"}, {"measurement": "tmax", "setting": "[1]; [3]", "value": "4.00 ± 3.94", "unit": "h"}, {"measurement": "relative BA", "setting": "[1]; relative to MRE-269: AUC0-24(each salt)/AUC0-24(MRE-269, mean)×100, rat, oral, 1 mg/capsule/body", "value": "128 ± 41", "unit": "%"}]}, {"compound": "CC(C)N(CCCCOCC(=O)O)c1cnc(-c2ccccc2)c(-c2ccccc2)n1", "note": "[form-III crystal, 2-(4-((5,6-diphenylpyrazin-2-yl)(isopropyl)amino)butoxy)acetic acid]", "values": [{"measurement": "thermodynamic stability", "setting": "[2]", "value": "thermodynamically unstable"}]}]}
